Assay results: ChEMBL document CHEMBL1201862, “PubChem BioAssay data set” (2004)
The source made the active and inactive calls.

Legend:
[1] = target: Intestinal-type alkaline phosphatase (Homo sapiens, UniProt P09923); experiment: activation of human intestinal alkaline phosphatase – biochemical, dose response (AID 488873); format: functional
[2] = target: Intestinal-type alkaline phosphatase (Mus musculus, UniProt P24822); experiment: PubChem AID 488785; format: functional
[3] = target: T1, Alkaline phosphatase, tissue-nonspecific isozyme (Homo sapiens, UniProt P05186); experiment: TNAP enzyme inhibition by screening hits, dose response, selectivity assay for mouse IAP inhibitor project, biochemical, human TNAP, uHTS hits (AID 488906); format: functional
T1 sequence (P05186 whole entry): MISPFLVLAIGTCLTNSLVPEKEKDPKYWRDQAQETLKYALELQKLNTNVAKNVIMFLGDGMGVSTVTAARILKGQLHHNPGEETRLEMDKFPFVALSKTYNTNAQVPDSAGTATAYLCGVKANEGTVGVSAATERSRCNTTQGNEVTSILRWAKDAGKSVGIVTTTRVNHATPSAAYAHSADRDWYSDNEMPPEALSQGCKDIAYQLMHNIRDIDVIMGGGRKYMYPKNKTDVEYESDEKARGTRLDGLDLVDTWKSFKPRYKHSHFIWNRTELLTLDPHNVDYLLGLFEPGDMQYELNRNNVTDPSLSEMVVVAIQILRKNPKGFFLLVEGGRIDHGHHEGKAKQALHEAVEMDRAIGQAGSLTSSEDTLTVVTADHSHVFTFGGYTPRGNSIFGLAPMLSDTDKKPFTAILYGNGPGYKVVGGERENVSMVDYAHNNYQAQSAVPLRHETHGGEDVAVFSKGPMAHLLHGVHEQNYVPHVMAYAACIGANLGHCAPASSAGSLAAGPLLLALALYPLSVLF

Albumin = Albumin (Bos taurus, UniProt P02769); experiment: Counterscreen for inhibitors of T-cell receptor (TCR)-CD3 interaction: Fluorescence-based biochemical high throughput dose response assay to identify inhibitors of T-cell receptor (TCR)-CD3 interaction using a TAMRA-labeled BSA probe.; format: functional
BJ [4] = experiment: BJ-TERT fibroblast viability loss – cell-based, RAS-independent, luminescence, dose response (AID 1933); format: functional; settings: Homo sapiens
BJ [5] = experiment: cells; format: functional, cell-based; settings: Homo sapiens
BJ [6] = experiment: BJ-TERT-LT-ST fibroblast viability loss – cell-based, RAS-independent, luminescence, dose response (AID 1935); format: functional; settings: Homo sapiens;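 also: BJ fibroblasts immortalized with TERT plus LT and ST oncogenes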
[7] = DRD fibroblast viability loss – cell-based, non-viral oncogenic, luminescence, dose response (AID 1934); format: functional; settings: Homo sapiens
CAAX prenyl protease 2 [8] = target: T2, CAAX prenyl protease 2 (Saccharomyces cerevisiae S288c, UniProt Q03530); format: biochemical
T2 sequence (Q03530 whole entry): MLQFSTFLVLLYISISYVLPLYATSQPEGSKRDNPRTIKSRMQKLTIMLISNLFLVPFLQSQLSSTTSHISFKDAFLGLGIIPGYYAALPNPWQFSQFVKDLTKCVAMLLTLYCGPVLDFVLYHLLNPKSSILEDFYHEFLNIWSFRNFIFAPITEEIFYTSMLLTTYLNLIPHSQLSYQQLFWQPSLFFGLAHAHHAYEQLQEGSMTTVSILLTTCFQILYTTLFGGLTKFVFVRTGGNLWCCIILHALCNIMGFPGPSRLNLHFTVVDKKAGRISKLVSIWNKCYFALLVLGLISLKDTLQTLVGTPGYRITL

[9] = toxicity toward cultured mammalian cells – cell-based, plate reader, cherry-pick samples, cytotoxicity control, dose response (AID 504397); format: functional
CAAX prenyl protease 2 [10] = target: CAAX prenyl protease 2 (Homo sapiens, UniProt Q9Y256); experiment: inhibition of Ras-converting CAAX protease Rce1 – biochemical, yeast membranes, quenched-peptide fluorescence, cherry-pick, dose response (AID 588849)
[11] = target: T3, Tyrosine-protein phosphatase non-receptor type 7 (Homo sapiens, UniProt P35236); format: functional
T3 sequence (P35236 whole entry): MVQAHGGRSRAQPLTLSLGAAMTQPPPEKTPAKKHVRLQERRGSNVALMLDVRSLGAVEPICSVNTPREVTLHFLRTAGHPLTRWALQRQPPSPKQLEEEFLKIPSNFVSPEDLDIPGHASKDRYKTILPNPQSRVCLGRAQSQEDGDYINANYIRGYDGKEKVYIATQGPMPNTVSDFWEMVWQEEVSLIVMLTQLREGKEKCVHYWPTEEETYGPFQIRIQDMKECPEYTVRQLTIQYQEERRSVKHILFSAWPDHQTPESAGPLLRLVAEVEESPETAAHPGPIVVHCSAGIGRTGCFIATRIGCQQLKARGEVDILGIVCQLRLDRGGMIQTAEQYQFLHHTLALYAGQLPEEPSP

[12] = target: T4, Tyrosine-protein phosphatase non-receptor type 22 (Homo sapiens, UniProt Q9Y2R2); format: functional
T4 sequence (Q9Y2R2 whole entry): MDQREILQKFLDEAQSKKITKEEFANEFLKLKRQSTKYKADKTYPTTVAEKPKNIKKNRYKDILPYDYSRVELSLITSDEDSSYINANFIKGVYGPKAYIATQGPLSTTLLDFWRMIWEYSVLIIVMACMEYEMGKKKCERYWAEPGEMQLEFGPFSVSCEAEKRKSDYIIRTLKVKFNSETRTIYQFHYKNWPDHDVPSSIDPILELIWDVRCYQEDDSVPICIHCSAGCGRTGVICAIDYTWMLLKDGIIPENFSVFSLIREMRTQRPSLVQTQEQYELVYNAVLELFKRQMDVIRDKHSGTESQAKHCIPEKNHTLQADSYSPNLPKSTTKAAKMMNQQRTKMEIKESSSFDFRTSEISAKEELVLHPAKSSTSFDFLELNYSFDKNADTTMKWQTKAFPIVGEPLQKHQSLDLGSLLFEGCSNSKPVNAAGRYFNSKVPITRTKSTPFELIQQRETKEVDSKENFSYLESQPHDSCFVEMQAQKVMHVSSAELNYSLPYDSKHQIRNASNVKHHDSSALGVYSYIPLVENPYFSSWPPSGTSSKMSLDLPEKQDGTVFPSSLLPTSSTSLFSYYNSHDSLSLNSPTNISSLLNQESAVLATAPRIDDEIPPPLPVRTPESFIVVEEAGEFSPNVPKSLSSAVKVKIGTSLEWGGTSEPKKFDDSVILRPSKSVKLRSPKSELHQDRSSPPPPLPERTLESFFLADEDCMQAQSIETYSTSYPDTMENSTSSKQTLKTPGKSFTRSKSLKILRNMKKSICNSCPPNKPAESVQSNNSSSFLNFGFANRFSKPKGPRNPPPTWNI

[13] = target: T4, Tyrosine-protein phosphatase non-receptor type 22; format: functional; remark: listed apart in the source

Intestinal-type alkaline phosphatase (Homo sapiens, UniProt P09923), sequence (P09923 whole entry): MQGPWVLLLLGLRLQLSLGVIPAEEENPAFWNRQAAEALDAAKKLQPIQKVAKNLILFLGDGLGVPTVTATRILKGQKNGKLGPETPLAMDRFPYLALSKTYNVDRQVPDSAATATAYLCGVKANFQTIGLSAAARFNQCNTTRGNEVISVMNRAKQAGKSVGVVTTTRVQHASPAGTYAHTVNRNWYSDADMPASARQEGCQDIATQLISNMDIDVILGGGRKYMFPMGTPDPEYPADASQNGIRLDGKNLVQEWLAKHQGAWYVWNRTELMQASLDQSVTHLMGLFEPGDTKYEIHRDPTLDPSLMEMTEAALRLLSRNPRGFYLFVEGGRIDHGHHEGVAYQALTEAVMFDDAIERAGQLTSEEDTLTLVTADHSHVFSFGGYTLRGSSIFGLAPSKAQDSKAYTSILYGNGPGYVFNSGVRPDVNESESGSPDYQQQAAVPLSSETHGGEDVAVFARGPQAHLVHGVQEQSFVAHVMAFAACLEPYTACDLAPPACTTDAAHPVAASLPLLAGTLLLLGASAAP
Intestinal-type alkaline phosphatase (Mus musculus, UniProt P24822), sequence (P24822 whole entry): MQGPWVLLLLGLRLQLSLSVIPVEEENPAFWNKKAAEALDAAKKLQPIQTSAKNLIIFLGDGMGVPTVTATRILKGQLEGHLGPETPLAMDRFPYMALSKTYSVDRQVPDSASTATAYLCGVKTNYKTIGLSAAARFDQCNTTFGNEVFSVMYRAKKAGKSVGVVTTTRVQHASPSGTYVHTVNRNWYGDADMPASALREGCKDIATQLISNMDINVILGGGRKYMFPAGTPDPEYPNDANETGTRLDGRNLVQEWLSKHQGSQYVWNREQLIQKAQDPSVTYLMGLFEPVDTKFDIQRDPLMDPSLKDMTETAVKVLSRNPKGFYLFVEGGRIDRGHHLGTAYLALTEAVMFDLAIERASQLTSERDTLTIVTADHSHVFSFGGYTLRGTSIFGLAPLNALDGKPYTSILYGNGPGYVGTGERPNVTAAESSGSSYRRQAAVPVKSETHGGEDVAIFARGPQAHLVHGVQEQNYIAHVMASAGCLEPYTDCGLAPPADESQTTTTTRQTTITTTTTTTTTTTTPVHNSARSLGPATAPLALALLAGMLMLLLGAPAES
CAAX prenyl protease 2 (Homo sapiens, UniProt Q9Y256), sequence (Q9Y256 whole entry): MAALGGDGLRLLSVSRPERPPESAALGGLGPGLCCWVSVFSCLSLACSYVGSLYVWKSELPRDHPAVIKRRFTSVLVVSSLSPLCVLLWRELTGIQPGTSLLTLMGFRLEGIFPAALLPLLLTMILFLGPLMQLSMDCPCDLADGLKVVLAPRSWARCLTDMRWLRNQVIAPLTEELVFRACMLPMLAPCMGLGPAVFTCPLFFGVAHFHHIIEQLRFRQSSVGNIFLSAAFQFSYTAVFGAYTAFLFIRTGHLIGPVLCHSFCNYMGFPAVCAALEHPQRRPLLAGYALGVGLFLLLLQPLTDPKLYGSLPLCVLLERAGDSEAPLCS
Albumin, sequence (P02769 whole entry): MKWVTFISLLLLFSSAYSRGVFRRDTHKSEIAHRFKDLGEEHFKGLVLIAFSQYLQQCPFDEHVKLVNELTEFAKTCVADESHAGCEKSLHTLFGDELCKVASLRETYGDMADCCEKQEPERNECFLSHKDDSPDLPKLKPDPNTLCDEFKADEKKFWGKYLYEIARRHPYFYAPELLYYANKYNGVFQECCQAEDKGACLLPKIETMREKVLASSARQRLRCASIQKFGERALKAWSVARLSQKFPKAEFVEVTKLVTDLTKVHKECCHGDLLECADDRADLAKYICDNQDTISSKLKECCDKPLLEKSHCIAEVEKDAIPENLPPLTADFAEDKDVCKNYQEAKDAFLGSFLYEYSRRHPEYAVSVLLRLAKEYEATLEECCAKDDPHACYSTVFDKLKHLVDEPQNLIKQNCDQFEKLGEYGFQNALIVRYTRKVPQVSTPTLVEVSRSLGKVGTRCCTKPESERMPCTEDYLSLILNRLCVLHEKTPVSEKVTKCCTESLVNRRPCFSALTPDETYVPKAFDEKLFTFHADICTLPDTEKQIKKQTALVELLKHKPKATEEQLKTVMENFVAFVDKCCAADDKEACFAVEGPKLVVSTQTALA

**Q.** With O=C(NNC(=S)NC(=O)c1cccs1)c1ccc(O)cc1 as the compound, how does the EC50 [1] read?
**A.** > 100 µM (inactive)

**Q.** What about the IC50 [2] of the same compound?
**A.** 11.9 µM (active)

**Q.** And the IC50 [3]?
**A.** > 100 µM (inactive)

**Q.** What about the IC50 (Albumin) of the same compound?
**A.** > 94 µM (inactive)

**Q.** Which EC50 (BJ [4]) does the source give for O=C1C(=O)N(C/C=C/c2ccccc2)c2ccccc21 here?
**A.** 8.22 µM (inconclusive)

**Q.** What about the EC50 (BJ [5]) of the same compound?
**A.** > 150 µM (not active)

**Q.** What about the EC50 (BJ [6]) of the same compound?
**A.** 14.9 µM (active)

**Q.** And the EC50 [7]?
**A.** 39.8 µM (active)

**Q.** What about the AC50 (CAAX prenyl protease 2 [8]) of the same compound?
**A.** 1.92 µM (active)

**Q.** What about the AC50 [9] of the same compound?
**A.** 64.6 µM (active)

**Q.** And the AC50 (CAAX prenyl protease 2 [10])?
**A.** 5.17 µM (active)

**Q.** With CC(C)n1c(C(=O)OCC(=O)NCc2ccc3c(c2)OCO3)cc2occc21 as the compound, how does the IC50 [11] read?
**A.** > 79.4 µM (inactive)

**Q.** And the IC50 [12]?
**A.** > 79.4 µM (inactive)

**Q.** What about the IC50 [13] of the same compound?
**A.** > 79.4 µM (inactive)
